Source: patent publication US20050239654A1, “Synergistically acting herbicidal mixtures” (priority 2002, published 2005)

How the values were obtained:
Assay in all cases: Herbicidal action, post-emergence treatment, greenhouse
Type in all cases: in vivo
Galium aparine = tested on: Galium aparine
Excerpt: (§1) The mixtures according to the invention were applied pre- or post-emergence (foliar treatment). The herbicidal compounds of component B and, if desired, of component C were applied in the formulation in which they are present as commercially available product.
(§2) The herbicidally active compounds of components A), B) and, if desired, C) were applied in succession or jointly, in the latter case in some cases as a tank mix and in some cases as a ready-mix, in the form of emulsions, aqueous solutions or suspensions, the vehicle being water (300-400 l/ha). In the case of the field trials, application was effected with the aid of a mobile plot sprayer.
(§3) The test period extended over 3 to 8 weeks, and the stands were also observed at later points in time.
(§4) Damage by the herbicidal compositions was evaluated with reference to a scale of 0% to 100 in comparison with untreated control plots. 0 means no damage and 100 means complete destruction of the plants.
(§5) In these examples, the value E at which only an additive effect of the individual active ingredients is to be expected was calculated by the method of S. R. Colby (Calculating synergistic and antagonistic responses of herbicide combinations, Weeds 15, 20 pp (1967)).
(§6) This was done using the formula [formula] where • X=Percentage of the herbicidal action of X at an application rate of x; • Y=Percentage of the herbicidal action of Y at an application rate of Y; • E=expected herbicidal action of X+Y at rates of application x+y (in %); or the formula [formula] where • X=Percentage of the herbicidal action of X at an application rate of x; • Y=Percentage of the herbicidal action of Y at an application rate of y; • Z=Percentage of the herbicidal action of Z at an application rate of z; • E=expected herbicidal action of X+Y+Z at rates of application x+y+z (in %)
(§7) If the value observed exceeds the value E calculated in accordance with Colby's formula, then synergism is present.

Abutilon theophrasti = tested on: Abutilon theophrasti
Excerpt: as §1, §2, §3, §4, §5, §6, §7

Avena fatua = tested on: Avena fatua
Excerpt: as §1, §2, §3, §4, §5, §6, §7

Amaranthus retroflexus = tested on: Amaranthus retroflexus
Excerpt: as §1, §2, §3, §4, §5, §6, §7

Commelina benghalensis = details: Table 4, 3.91 g/ha ai
Excerpt: as §1, §2, §3, §4, §5, §6, §7

Polygonum persicaria = tested on: Polygonum persicaria
Excerpt: as §1, §2, §3, §4, §5, §6, §7

Pharbitis purpurea = details: Table 12, 62.5 g/ha ai
Excerpt: as §1, §2, §3, §4, §5, §6, §7

Echinochloa crus-galli = tested on: Echinochloa crus-galli
Excerpt: as §1, §2, §3, §4, §5, §6, §7

Brachiaria plantaginea = tested on: Brachiaria plantaginea
Excerpt: as §1, §2, §3, §4, §5, §6, §7

Cc1c(C(=O)c2cnn(C)c2O)ccc(S(C)(=O)=O)c1C1=NOCC1 [Ia.29, 4-[2-methyl-3-(4,5-dihydroisoxazol-3-yl)-4-methylsulfonyl-benzoyl]-1-methyl-5-hydroxy-1H-pyrazole]
Galium aparine Damage (Galium aparine; Table 7, 0.98 g/ha ai): 20%
Galium aparine Damage (Galium aparine; Table 8, 1.95 g/ha ai): 30%
Abutilon theophrasti Damage (Abutilon theophrasti; Table 3, 0.98 g/ha ai): 30%
Abutilon theophrasti Damage (Abutilon theophrasti; Table 9, 7.81 g/ha ai): 85%
Avena fatua Damage (Avena fatua; Table 5, 0.98 g/ha ai): 0%
Avena fatua Damage (Avena fatua; Table 6, 1.95 g/ha ai): 10%
Amaranthus retroflexus Damage (Amaranthus retroflexus; Table 5, 0.98 g/ha ai): 60%
Amaranthus retroflexus Damage (Amaranthus retroflexus; Table 7, 0.98 g/ha ai): 60%
Commelina benghalensis Damage (Commelina benghalensis): 50%

CCNc1nc(Cl)nc(NC(C)C)n1 [atrazine]
Galium aparine Damage (Galium aparine; Table 7, 15.6 g/ha ai): 0%
Galium aparine Damage (Galium aparine; Table 8, 31.25 g/ha ai): 20%
Galium aparine Damage (Galium aparine; Table 11, 125 g/ha ai): 60%
Galium aparine Damage (Galium aparine; Table 15, 125 g/ha ai): 60%
Abutilon theophrasti Damage (Abutilon theophrasti; Table 9, 125 g/ha ai): 30%
Abutilon theophrasti Damage (Abutilon theophrasti; Table 14, 125 g/ha ai): 30%
Polygonum persicaria Damage (Polygonum persicaria; Table 11, 125 g/ha ai): 60%
Polygonum persicaria Damage (Polygonum persicaria; Table 13, 62.5 g/ha ai): 40%
Polygonum persicaria Damage (Polygonum persicaria; Table 17, 62.5 g/ha ai): 40%
Amaranthus retroflexus Damage (Amaranthus retroflexus; Table 7, 15.6 g/ha ai): 40%
Pharbitis purpurea Damage (Pharbitis purpurea): 80%
Echinochloa crus-galli Damage (Echinochloa crus-galli; Table 10, 125 g/ha ai): 30%
Echinochloa crus-galli Damage (Echinochloa crus-galli; Table 12, 62.5 g/ha ai): 20%
Echinochloa crus-galli Damage (Echinochloa crus-galli; Table 14, 125 g/ha ai): 30%
Echinochloa crus-galli Damage (Echinochloa crus-galli; Table 16, 62.5 g/ha ai): 20%
Brachiaria plantaginea Damage (Brachiaria plantaginea; Table 10, 125 g/ha ai): 25%
Brachiaria plantaginea Damage (Brachiaria plantaginea; Table 16, 62.5 g/ha ai): 20%
